The test system of one data set is CCRF-CEM. The data set is described as follows: Concentration required to produce 50 percent inhibition of HIV-1 infection in CEM cells. It counts as functional, cell-based. The following applies: Homo sapiens.
Data set [1] in a line: Partition coefficient (logP). It counts as physicochemical. The settings on record: octanol/water.
For data set [2], the target named is T1, Human immunodeficiency virus type 1 protease (Human immunodeficiency virus 1, UniProt Q72874). In words: Tested for inhibition of HIV protease using fluorogenic substrate.
Data set [3] in a line: Tested for cytotoxicity in HIV-1 infected human T-lymphocyte cell culture. The class given is functional. The following applies: read-out: TC50 (the source's name).
Data set [4] has as its target T1, Human immunodeficiency virus type 1 protease. The data set is described as follows: Tested for inhibition of HIV protease using fluorogenic substrate; insoluble.

As a reminder, the EC50 is the concentration needed to bring the measured effect to its halfway point. A word on the logP: it is the decadic logarithm of the partition coefficient of the neutral form, usually between octanol and water. Regarding `O=C(Nc1ccccc1C(=O)N[C@@H](Cc1ccccc1)[C@H](O)[C@H](O)[C@H](Cc1ccccc1)NC(=O)c1ccccc1NC(=O)OCc1ccccc1)OCc1ccccc1`, the EC50 in the data set on CCRF-CEM was over 100000 nM. Besides, the logP in data set [1] (read-out: logP) was 8.16.

In general, Ki refers to a dissociation constant, usually derived from enzyme kinetics or from competition with a known ligand. Consider `Cc1nccnc1C(=O)Nc1ccccc1C(=O)N[C@@H](Cc1ccccc1)[C@H](O)[C@H](O)[C@H](Cc1ccccc1)NC(=O)c1ccccc1NC(=O)c1nccnc1C`, for which the Ki in data set [2] is over 10000 nM. In addition, in data set [1] (read-out: logP), the log partition coefficient (logP) was 5.66.

For `O=C(Nc1ccccc1C(=O)N[C@@H](Cc1ccccc1)C[C@H](O)[C@H](Cc1ccccc1)NC(=O)c1ccccc1NC(=O)OCc1ccccn1)OCc1ccccn1`, in data set [3], the CC50 was over 50000 nM. The compound further yielded an EC50 with CCRF-CEM of 56 nM. Besides, the affinity in data set [2] corresponds to a Ki of 0.07 nM. Besides, the logP in data set [1] (read-out: logP) came to 6.61.

For the compound `O=C(COCc1ccccc1)Nc1ccccc1C(=O)N[C@@H](Cc1ccccc1)[C@H](O)[C@H](O)[C@H](Cc1ccccc1)NC(=O)c1ccccc1NC(=O)COCc1ccccc1`, the Ki in data set [2] is over 10000 nM. In addition, the logP in data set [1] (read-out: logP) worked out at 6.91.

In the data set on CCRF-CEM, `O=C(CO)Nc1ccccc1C(=O)N[C@@H](Cc1ccccc1)[C@H](O)[C@H](O)[C@H](Cc1ccccc1)NC(=O)c1ccccc1NC(=O)CO` registered an EC50 of 60000 nM. This compound also gave a Ki in data set [2] of 20 nM. Besides, in data set [1] (read-out: logP), the logP was 2.52.

In the data set with CCRF-CEM, `O=C(Nc1ccccc1C(=O)N[C@@H](Cc1ccccc1)C[C@H](O)[C@H](Cc1ccccc1)NC(=O)c1ccccc1NC(=O)OCc1cccnc1)OCc1cccnc1` gave an EC50 of 140 nM. This compound registered an inhibitory constant (Ki) in data set [2] of 0.26 nM. Moreover, the logP in data set [1] (read-out: logP) came out at 5.86.

For the compound `O=C(Nc1ccccc1C(=O)N[C@@H](Cc1ccccc1)C[C@H](O)[C@H](Cc1ccccc1)NC(=O)c1ccccc1NC(=O)OCc1ccncc1)OCc1ccncc1`, the response in the data set on CCRF-CEM was half-maximal at 2600 nM (EC50). In data set [2], this compound yielded a Ki of 0.45 nM. Further, the logP in data set [1] (read-out: logP) stood at 5.39.

In the data set with CCRF-CEM, `O=CNc1ccccc1C(=O)N[C@@H](Cc1ccccc1)[C@H](O)[C@H](O)[C@H](Cc1ccccc1)NC(=O)c1ccccc1NC=O` gave an EC50 of 900 nM. In addition, the affinity in data set [2], expressed as Ki, was 1.2 nM. The logP in data set [1] (read-out: logP) was determined as 4.89.

Take `O=C(Nc1ccccc1C(=O)N[C@@H](Cc1ccccc1)[C@H](O)[C@H](O)[C@H](Cc1ccccc1)NC(=O)c1ccccc1NC(=O)OCc1ccccn1)OCc1ccccn1`: the CC50 in data set [3] was 35000 nM. Moreover, the EC50 in the data set on CCRF-CEM worked out at 13 nM. Besides, the logP in data set [1] (read-out: logP) came to 6.49.

`O=C(Nc1c(Cl)cccc1C(=O)N[C@@H](Cc1ccccc1)[C@H](O)[C@H](O)[C@H](Cc1ccccc1)NC(=O)c1cccc(Cl)c1NC(=O)OCc1ccccc1)OCc1ccccc1` gave a logP in data set [1] of 9.34.

In the case of `CC(=O)Nc1ccccc1C(=O)N[C@@H](Cc1ccccc1)[C@H](O)[C@H](O)[C@H](Cc1ccccc1)NC(=O)c1ccccc1NC(C)=O`, the EC50 in the data set on CCRF-CEM is over 100000 nM. Further, in data set [1] (read-out: logP), the logP turned out to be 4.32.

Consider `O=C(Nc1ccccc1C(=O)N[C@@H](Cc1ccccc1)C[C@H](O)[C@H](Cc1ccccc1)NC(=O)c1ccccc1NC(=O)OCc1ccccc1)OCc1ccccc1`, for which the logP in data set [1] (read-out: logP) is 8.28.

In the case of `CCOC(=O)Nc1ccccc1C(=O)N[C@@H](Cc1ccccc1)[C@H](O)[C@H](O)[C@H](Cc1ccccc1)NC(=O)c1ccccc1NC(=O)OCC`, the Ki entry in data set [4] was “Insoluble”. Moreover, the logP in data set [1] (read-out: logP) turned out to be 6.14.

As to `O=C(Nc1ncccc1C(=O)N[C@@H](Cc1ccccc1)[C@H](O)[C@H](O)[C@H](Cc1ccccc1)NC(=O)c1cccnc1NC(=O)OCc1ccccc1)OCc1ccccc1`, the logP in data set [1] (read-out: logP) stood at 7.87.

`O=C(Nc1c(O)cccc1C(=O)N[C@@H](Cc1ccccc1)[C@H](O)[C@H](O)[C@H](Cc1ccccc1)NC(=O)c1cccc(O)c1NC(=O)OCc1ccccc1)OCc1ccccc1`: in data set [1] (read-out: logP), the logP is 7.96.

Take `Cc1cccc(C(=O)N[C@@H](Cc2ccccc2)[C@H](O)[C@H](O)[C@H](Cc2ccccc2)NC(=O)c2cccc(C)c2NC(=O)OCc2ccccc2)c1NC(=O)OCc1ccccc1`: the logP in data set [1] is on record as 9.24.

Source of the values: ChEMBL document CHEMBL1150484, “Structure-based design of achiral anthranilamides as P2/P2 surrogates for symmetry-based HIV protease inhibitors: design, synthesis, X-ray structure, enzyme inhibition and antiviral activity” (Bioorg Med Chem Lett, 1995).
